From patent US12344621B2, “CGRP antagonist compounds” (Nxera Pharma UK Limited, priority 2019, dated 2025)
Where two headings read alike, the source gives them in different places. Values belong to the compound of their own block, whether it stands above or below them.

Legend:
[1] = amide bond
[2] = amide bond; remark: listed apart in the source
human CGRP receptor = molecular target: T1, human CGRP receptor (Homo sapiens, UniProt O60894+Q16602); assay: cAMP functional assay (HTRF cAMP dynamic-2) in SK-N-MC cells; assay type: cell-based; settings: SK-N-MC cells endogenously expressing human CGRP receptor; challenge with EC80 human CGRP (0.3 nM); functional pKb converted from pIC50 by modified Cheng-Prussoff equation
T1 construct: SK-N-MC endogenously expressing the human CGRP receptor; endogenous in cells; host or cells: SK-N-MC human neuroblastoma cells
T1 sequence (Q16602 23-461): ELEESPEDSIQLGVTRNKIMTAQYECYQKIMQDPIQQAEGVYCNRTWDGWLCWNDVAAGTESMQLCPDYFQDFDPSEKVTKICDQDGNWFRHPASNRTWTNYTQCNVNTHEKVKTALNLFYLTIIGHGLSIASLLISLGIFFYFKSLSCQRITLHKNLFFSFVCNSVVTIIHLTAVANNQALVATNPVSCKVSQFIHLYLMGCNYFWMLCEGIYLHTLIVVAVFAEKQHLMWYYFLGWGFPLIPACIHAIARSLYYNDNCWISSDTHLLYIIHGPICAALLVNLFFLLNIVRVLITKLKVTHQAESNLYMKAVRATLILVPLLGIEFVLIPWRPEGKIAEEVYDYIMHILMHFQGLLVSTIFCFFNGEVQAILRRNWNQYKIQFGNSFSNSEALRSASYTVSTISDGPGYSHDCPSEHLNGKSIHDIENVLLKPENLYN
T1 sequence (O60894 27-148): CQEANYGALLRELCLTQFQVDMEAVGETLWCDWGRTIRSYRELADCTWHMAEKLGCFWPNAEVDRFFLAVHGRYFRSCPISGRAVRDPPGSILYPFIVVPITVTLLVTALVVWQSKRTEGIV
Description: Biological Activity cAMP Functional Assay
cAMP production following receptor activation was determined using the Homogeneous Time-Resolved Fluorescence (HTRF) cAMP dynamic-2 assay (Cisbio, France). The human neuroblastoma cell line SK-N-MC endogenously expressing the human CGRP receptor was seeded at a density of 12,500 cells/well in solid walled 96 well half area plates (Costar, Catalog Number 3688, Corning Life Sciences, Germany). After 16 h incubation at 37° C. media was removed and cells were incubated at 37° C. for 30 min in serum free media containing 500 μM IBMX (Tocris, Abingdon, UK, Catalog Number 2845) and increasing concentrations of test antagonist. Following this cells were challenged with an EC80 concentration of human CGRP (0.3 nM) for a further 30 min at 37° C. and then cAMP production was determined as manufacturer's instructions before plates were read on a PheraStar fluorescence plate reader (BMG LabTech, Germany). IC50 values were derived from the inhibition curve. The pIC50 values (where pIC50=−log 10 IC50) were converted to a functional pKb value using a modified Cheng-Prussoff equation where Kd=agonist EC50 and L hot=agonist challenge concentration. The pKb values of certain compounds of the invention are detailed in Table 4.

Kb (human CGRP receptor): 0.0126 nM
SMILES: Cc1cc(C[C@H]2NC(=O)c3cnc4c(c3)C[C@@]3(C4)C(=O)Nc4ncc(cc43)/C=C/COCCCCCN(C)C2=O)cc2cn[nH]c12 [Example 1-6, (1S,10R,20E)-12-methyl-10-[(7-methyl-1H-indazol-5-yl)methyl]-18-oxa-5,9,12,24,26-pentazapentacyclo[20.5.2.11,4.13,7.025,28]hentriaconta-3,5,7(30),20,22(29),23,25(28)-heptaene-8,11,27-trione]
ring closure, isolated yield ([1]; from CNCCCCCOC/C=C/c1cnc2c(c1)[C@@]1(Cc3cc(C(=O)N[C@H](Cc4cc(C)c5[nH]ncc5c4)C(=O)O)cnc3C1)C(=O)N2, 22-membered ring, HATU/DIEA, DMF, 3.7 mM, 0.03 h): 58.9% | ring closure, yield of all isomers ([2]; from CNCCCCCOC/C=C/c1cnc2c(c1)[C@@]1(Cc3cc(C(=O)N[C@H](Cc4cc(C)c5[nH]ncc5c4)C(=O)O)cnc3C1)C(=O)N2, HATU, DMF, 3.68 mM, 0.03 h): 58.9%

Kb (human CGRP receptor): 0.2 nM
SMILES: Cc1cc(C[C@H]2OC(=O)c3cnc4c(c3)C[C@@]3(C4)C(=O)Nc4ncc(cc43)/C=C/COCCOCCN(C)C2=O)cc2cn[nH]c12 [Example 4-1, (1S,10R,20E)-12-methyl-10-[(7-methyl-1H-indazol-5-yl)methyl]-9,15,18-trioxa-5,12,24,26-tetrazapentacyclo[20.5.2.11,4.13,7.025,28]hentriaconta-3,5,7(30),20,22(29),23,25(28)-heptaene-8,11,27-trione]
ring closure, isolated yield ([1]; from CNCCOCCOC/C=C/c1cnc2c(c1)[C@@]1(Cc3cc(C(=O)O[C@H](Cc4cc(C)c5[nH]ncc5c4)C(=O)O)cnc3C1)C(=O)N2, 22-membered ring, HATU/DIEA, DMA, 5.0 mM, 0.08 h): 62% | ring closure, yield of all isomers ([2]; from CNCCOCCOC/C=C/c1cnc2c(c1)[C@@]1(Cc3cc(C(=O)O[C@H](Cc4cc(C)c5[nH]ncc5c4)C(=O)O)cnc3C1)C(=O)N2, HATU, DMA, 5.0 mM, 0.08 h): 62%

Kb (human CGRP receptor): 0.501 nM
SMILES: Cc1cc(C[C@H]2NC(=O)N3CCC4(CC3)OC(=O)Nc3ncc(cc34)/C=C/COCCOCCN(C)C2=O)cc2cn[nH]c12 [Example 6-1, (7R,17E)-9-methyl-7-[(7-methyl-1H-indazol-5-yl)methyl]-12,15,25-trioxa-4,6,9,21,23-pentazatetracyclo[17.6.2.21,4.022,26]nonacosa-17,19(27),20,22(26)-tetraene-5,8,24-trione]
ring closure, isolated yield ([1]; from CNCCOCCOC/C=C/c1cnc2c(c1)C1(CCN(C(=O)N[C@H](Cc3cc(C)c4[nH]ncc4c3)C(=O)O)CC1)OC(=O)N2, 21-membered ring, PyAOP/DIEA, DMF, 3.1 mM, 25.0 °C, 0.5 h): 45% | ring closure, yield of all isomers ([2]; from CNCCOCCOC/C=C/c1cnc2c(c1)C1(CCN(C(=O)N[C@H](Cc3cc(C)c4[nH]ncc4c3)C(=O)O)CC1)OC(=O)N2, PyAOP, DMF, 3.08 mM, 25.0 °C, 0.5 h): 45%

Kb (human CGRP receptor): 1.26 nM
SMILES: Cc1cc(C[C@H]2OC(=O)N3CCC4(CC3)OC(=O)Nc3ncc(cc34)/C=C/COCCOCCN(C)C2=O)cc2cn[nH]c12 [Example 7-1, (7R,17E)-9-methyl-7-[(7-methyl-1H-indazol-5-yl)methyl]-6,12,15,25-tetraoxa-4,9,21,23-tetrazatetracyclo[17.6.2.21,4.022,26]nonacosa-17,19(27),20,22(26)-tetraene-5,8,24-trione]
ring closure, isolated yield ([1]; from CNCCOCCOC/C=C/c1cnc2c(c1)C1(CCN(C(=O)O[C@H](Cc3cc(C)c4[nH]ncc4c3)C(=O)O)CC1)OC(=O)N2, 21-membered ring, PyAOP/DIEA, DMF, 3.8 mM, 0.67 h): 50% | ring closure, yield of all isomers ([2]; from CNCCOCCOC/C=C/c1cnc2c(c1)C1(CCN(C(=O)O[C@H](Cc3cc(C)c4[nH]ncc4c3)C(=O)O)CC1)OC(=O)N2, PyAOP, DMF, 3.76 mM, 0.67 h): 50%
